Experimental data as given in patent US6933315B2, “Derivatives of isoindigo, indigo and indirubin and methods of treating cancer” (priority 2001, dated 2005).
Where two headings read alike, the source gives them in different places.

Columns and labels:
SKBR-3 = assay: Growth inhibition by MTT, SKBR-3 breast cancer cells; type: cell-based, Human; details: Homo sapiens, read-out: IC50 SKBR-3
Description: (§1) Growth inhibitory effects of NATURA and other agents on human cancer cells were determined by standard MTT (3-(4,5-dimethylthiazol-2-yl)-2,5-diphenyltetrazolium bromide Test) as described previously. Briefly, cancer cells grown exponentially were aliquoted into 96-well plates at a density of 5000 cells/200 μl per well in RPMI 1640 medium containing 10% FBS overnight. The cells in the plates were then exposed to series of dilution of indicated agent. After 72 h of incubation, 100 μl of the medium was removed from each of the wells and 50 μl of a 1 mg/ml solution of 3-(4,5-dimethylthiazol-2-yl)-2,5-diphenyltetrazolium bromide (MTT) was added to each well and the cells were incubated for additional 4 h. 200 μl of solution of 0.04 N HCl-isopropanol was added to each well to dissolve the black fromazan participates, and absorbance at 540 nm was measured on a 96-Well.

DLD-1 = assay: Growth inhibition by MTT, DLD-1 colon cancer cells; type: cell-based, Human; details: Homo sapiens, DLD-1, 72 h exposure
Description: as §1
as §1, with “FIGS. 3-5 show the anticancer affects” for “Growth inhibitory effects”, “NATURA in MCF-7 breast cancer cells, DLD-1 colon cancer cells,” for “NATURA”, “LNCaP hormone-dependent prostate” for “other agents on human”, “cells. The” for “cells were determined by standard MTT (3-(4,5-dimethylthiazol-2-yl)-2,5-diphenyltetrazolium bromide Test) as described previously. Briefly,”, “fetal bovine serum (FBS)” for “FBS”, “96-Well Microplate Reader. Each experiment was repeated at least three times.” for “96-Well.”

LNCaP = assay: Growth inhibition by MTT, LNCaP prostate cancer cells; type: cell-based, Human; details: Homo sapiens, LNCaP
Description: as §1, with “Briefly, cancer cells grown exponentially were aliquoted into 96-well plates at a density of 5000 cells/200 μl per well in RPMI 1640 medium containing 10% FBS overnight.” left out
The cells in the plates were then exposed to series of dilution of indicated agent. After 72 h of incubation, 100 μl of the medium was removed from each of the wells and 50 μl of a 1 mg/ml solution of 3-(4,5-dimethylthiazol-2-yl)-2,5-diphenyltetrazolium bromide (MTT) was added to each well and the cells were incubated for additional 4 h. 200 μl of solution of 0.04 N HCl-isopropanol was added to each well to dissolve the black fromazan participates, and absorbance at 540 nm was measured on a 96-Well Microplate Reader. Each experiment was repeated at least three times.

DU145 = assay: Growth inhibition by MTT, DU145 prostate cancer cells; type: cell-based, Human; details: Homo sapiens, DU-145; MTT, 72 h exposure; read-out: IC50 DU145
Description: as §1

human cancer cell lines = assay: Growth inhibition by MTT, all tested human cancer cell lines; type: cell-based; details: Homo sapiens, 72 h, read-out: IC50, growth inhibitory effects on all tested human cancer cell lines, range over breast, colon, prostate lines, three day exposure
Description: as §1

in vivo = details: for DFP (Frequency of Death): mice, oral, two weeks
Description: The animals were given Meisoindigo suspension orally at dosage of 0, 1.85, 2.60, 3.60, 5.10, 7.14, and 10.00 g/kg respectively. The animals were tested for two weeks, and the LD50 was measured using modified Bliss method as follows.
LD50 was calculated using following equation: LD50=log^−1 [Xm−i(ΣDFP−0.5)]
Here, Xm is the maximal frequency of death, Xm=I in this case; i is the distance of group. It is determined by following equation, in this case r=1.4 i=log 1/r=0.146

cdk4/6 = cdk4/6 activity immuno-precipitated from treated LNCaP cells; type: cell-based, Human
Description: (§2) Assay for cyclin dependent kinase activity: HUVEC and LNCaP cells were cultured in EMB (endothelial cell basal medium) and RPMI 1640 containing 10% FBS, respectively. The cells grown exponentially were exposed to indicated concentrations of meisoindigo or NATURA for 24 hr. The cells were harvested, washed, and total proteins extracted as described previously. One hundred μg of the proteins were immuno-precipitated using antibodies against cdk2, cdk4/6, PKC, ERK2 or cyclin D1 overnight at 4° C. in the presence of a cocktail of protease inhibitors. The immuno-precipitates were washed 4 times with protein extraction buffer and once with kinase assay buffer, and reacted with 75 μg/ml histone H1 in the presence of [γ-^32P]-ATP (2.5 μCi/10 μM). The phosphorylated histone H1 (represent cdk activity) was measured by scintillation counting or by SDS-polyacrylaimde gel electrophoresis. The direct inhibitory effects of Meisoindigo and NATURA were also measured by reaction of immuno-purified specific enzyme from untreated cells directly with the Meisoindigo or NATURA.
as §2, with “HUVEC” for “Assay for cyclin dependent kinase activity: HUVEC”, “either cdk4/6” for “cdk2, cdk4/6, PKC, ERK2”, “[γ-^32P]-ATP.” for “[γ-^32P]-ATP (2.5 μCi/10 μM).”, “counting.” for “counting or by SDS-polyacrylaimde gel electrophoresis. The direct inhibitory effects of Meisoindigo and NATURA were also measured by reaction of immuno-purified specific enzyme from untreated cells directly with the Meisoindigo or NATURA.”

Walker 256 = assay: Anticancer activity against Walker 256 sarcoma
Description: Anticancer activity against Walker 256: Wistar rats with body weights between 50 to 55 grams, were randomly divided into several groups, ten of each, respectively. Approximately 2×10^6 of the Walker sarcoma cells were transplanted into a Wistar rat. Twenty-four hours after the transplantation, equal molar dosage (0.384 mM/kg) of NATURA or other sugar derivatives were given orally for 10 days. The animals in the control group were given 0.1 ml saline (drug vehicle, negative control) for the same periods of time as treated group. Twenty-four hours after the last administration, the animals were sacrificed and tumors were removed and weighed.
Briefly, C57 mice, body weight between 18 to 22 grams, and rat, body weight between 50 to 55 grams, were randomly divided into several groups, ten of each, respectively. Approximately 2×10^6 of Lewis cancer cells or Walker sarcoma cells were transplanted into mice or rat. […] The animals in the control group were given 0.1 ml saline (drug vehicle, negative control) for the same periods of time as treated group. The animals at end of the treatment were sacrificed and tumors were removed and weighed.
In order to assess the anticancer activities of NATURA and other sugar derivatives, Wistard rats transplanted with W256 were given the same molar of the tested compounds (0.384 mM/kg) for the same period of time (10 days).

[1] = MTT, 72 h exposure (Table 3), read-out: IC50 LNCaP
[2] = 15 μM, LNCaP cells exposed 24 h
[3] = Walker 256, rat, oral, Indirubin 100 × 9, Meisoindigo 106 × 9 mg/kgxd

Structure (SMILES): CC(=O)OC1COC(N2C(=O)/C(=C3/C(=O)Nc4ccccc43)c3ccccc32)C(OC(C)=O)C1OC(C)=O [NATURA, 1-(β-D-O-Triacetyl-xylopyranosyl)-isoindigo]
- IC50 (SKBR-3; SK-BR-3, MTT, 72 h exposure): 1710 ± 140 nM
- IC50 (DLD-1): 1640 ± 181 nM
- IC50 (LNCaP; [1]): 1720 ± 270 nM
- IC50 (LNCaP; Table 10, read-out: IC50 in LNCaP cells (NATURA and its derivatives)): 1720 nM
- IC50 (DU145): 6920 ± 730 nM
- IC50 (human cancer cell lines): 1640 to 6920 nM
- LD50 at 2 weeks (in vivo; Kuan Ming, mouse, in vivo, po): 7330 ± 1150 mg/kg
- inhibition of D cyclins mediated cdk4/6 enzyme activity (cdk4/6; 5.0 μM, LNCaP cells, 24 h): Over 56%
- activity on cdk4 compared with cdk2 (cdk4/6; 5 μM, LNCaP cells, 24 hours): slight stronger activity
- inhibition of D cyclins mediated cdk4/6 enzyme activity (cdk4/6; [2]): complete inhibition
- inhibitory affect on cdk4/6 activity compared with same concentration of meisoindigo (cdk4/6; 5.0 μm, FIG. 7): greater inhibitory affect
- Percent of Inhibition against Walker 256 (Walker 256; Wistar rats, 0.384 mM/kg orally for 10 days): 77%
- Percent of Inhibition against Walker 256 (Walker 256; Wistar rats, 0.384 mM/kg orally for 10 days; listed as Xyl-Ac*NATURA)): 77.5%

Structure (SMILES): CN1C(=O)/C(=C2/C(=O)Nc3ccccc32)c2ccccc21 [Meisoindigo]
- IC50 (SKBR-3; SK-BR-3, 72 h): 2170 ± 170 nM
- IC50 (DLD-1): 2150 ± 170 nM
- IC50 (LNCaP; [1]): 2340 ± 330 nM
- IC50 (DU145): 8310 ± 930 nM
- IC50 (human cancer cell lines): 2150 to 8310 nM
- Unit of DF (in vivo; Dose 1.86 g/kg): 2.674
- [DF]^2P^2 (in vivo; Dose 1.86 g/kg): 0
- LD50 at 2 weeks (in vivo; Kuan Ming, mouse, in vivo, po): 3900 ± 800 mg/kg
- LD50 (in vivo; Kuan Ming, mouse, in vivo, po, 2 weeks): 3900 ± 800 mg/kg
- DFP (Frequency of Death) (in vivo; Dose 1.86 g/kg): 0
- DFP (Frequency of Death) (in vivo; Dose 2.60 g/kg): 0.20
- DFP (Frequency of Death) (in vivo; Dose 3.60 g/kg): 0.60
- DFP (Frequency of Death) (in vivo; Dose 5.10 g/kg): 0.70
- DFP (Frequency of Death) (in vivo; Dose 7.14 g/kg): 0.80
- DFP (Frequency of Death) (in vivo; Dose 10.00 g/kg): 1.00
- inhibition of D cyclins mediated cdk4/6 enzyme activity (cdk4/6; 5.0 μM, LNCaP cells, 24 h): Over 56%
- inhibition of D cyclins mediated cdk4/6 enzyme activity (cdk4/6; [2]): complete inhibition
- Inhibition (%) (Walker 256; [3]): 71.6 ± 3.1%
- Tumor Size X ± SD (Walker 256; [3]): 2.10 ± 0.17
